The term melting point denotes the temperature, or range, at which the solid turns liquid.

As to `COC1=C(OC)C(O)C(CC=C(C)CCC=C(C)CCC=C(C)C)C(C)C1=O` (centres undefined), the melting point was 48 to 52 °C.

For the compound `CC(C)Nc1nc(S(C)(=O)=O)nc(Cl)c1-c1c(F)cccc1Cl`, the melting point is 145 to 149 °C.

Turning to `NC(=NCC(F)(F)F)Nc1ccnc(CCCCc2nc(O)n[nH]2)n1`, the melting point lay within 209 to 210 °C.

For the compound `Cc1cc(C(=O)Nc2cc(F)ccc2O)c(Br)s1`, the melting point lay within 210 to 212 °C.

For `O=C(O)c1c(O)cccc1-n1cccn1`, the melting point is 175 to 179 °C.

`Cc1c(CC(=O)O)c2cc(O)ccc2n1C(=O)c1ccc(Cl)c(Cl)c1` returned a melting point of 177 to 179 °C.

As for `CCc1nc2c(c(=O)n(C)c(=O)n2C)n1CCCOc1ccccc1`, the melting point lay in the range of 107 to 108 °C.

For `CC(=O)Oc1cc(C)cc(C(=O)Cl)c1C`, the melting point lay in the range of 52 to 54 °C.

As for `O=C(O)CCC(CC=Cc1cccc(Cl)c1)(C(=O)C=Cc1ccc(Cl)cc1)c1ccccc1` (centres undefined), the melting point lay in the range of 65 to 105 °C.

The compound `Cc1c(C)n(CC2CC2)c2c(CCc3ccc(F)cc3F)nncc12` showed a melting point of 159 to 160 °C.

For the compound `CC(C)n1nc(-c2c(-c3ccccc3)nn3ccc(OCCN4C[C@@H](C)O[C@@H](C)C4)cc23)ccc1=O`, the melting point is 158 °C.

On to `C#CCN(C(=O)CO)c1c(C)nc(N(C)C)nc1C`, for which the melting point is 128 to 130 °C.

Take `CCn1ncc2c(NCc3ccc(C#N)cc3)c3ccccc3nc21`: the melting point was 233 to 234 °C.

On to `Oc1c(I)cc(Br)cc1I`, for which the melting point fell in the range of 122 to 124 °C.

Consider `COc1cccc(C(=O)N[C@H]2C[C@@H](c3cc(NC(=O)Cc4cccc5ccccc45)n[nH]3)C2)c1`, for which the melting point was determined as 125 °C.

Regarding `C[Si](Cn1ncnc1S)(c1ccc(F)cc1)c1ccc(F)cc1`, the melting point lay within 97 to 99 °C.

`CCCCn1cnnc1SC(=O)c1ccoc1` yielded a melting point of 102 to 105 °C.

Regarding `CN(C)CCN(C(=O)c1cccc([N+](=O)[O-])c1Br)c1ccnc2cc3c(cc12)OCO3`, the melting point lay in the range of 96 to 97 °C.

Compound `CN1CCN(c2cccc(Nc3cc(NC(=O)Nc4c(Cl)cccc4Cl)ncn3)c2)CC1` gave a melting point of 209 to 212 °C.

The compound `COc1ccc(/C=C(\C#N)c2ccc(Cl)cc2)cc1OC1CCCC1` displayed a melting point of 129 to 137 °C.

For `CC(C)CCNC(=NC#N)Nc1cccnc1`, the melting point is 136 °C.

`Cn1cnnc1C(N)(c1ccc(Cl)cc1)c1ccc2c(c1)c(-c1cccc(Cl)c1)cc(=O)n2C` (centres undefined) showed a melting point of 210 °C.

The compound `CCOC(=O)C1Cc2c(c(Cl)cc3c(-c4ccccc4)noc23)O1` (centres undefined) registered a melting point of 123 to 125 °C.

`CCCCCC1(O)CCC2(C)C(CCC3C4CCC(C5(C)OCCO5)C4(C)CC(=O)C32)C1` (centres undefined) returned a melting point of 106 °C.

In turn, `O=C(NC1CCCCC1)N(Cc1ccc(Cl)cc1)C1CCCC1` came in with a melting point of 99 to 101 °C.

With `CC(C)C=C(C=NO)c1ccccc1`, the melting point is 107 to 110 °C.

`COc1cc2c(cc1OC)C(C(S)(C#N)CCC(=O)OCCC(C)C)=NCC2` (centres undefined) displayed a melting point of 120 °C.

With `Cc1ccccc1-c1nc2c3ccccc3ccn2c1N=Cc1ccc2ccccc2c1Br`, the melting point lay within 250 to 252 °C.

In turn, `COc1cc(C)cc(C(O)=S)c1OC` had a melting point of 139 to 141 °C.

`Nc1ccc(S(=O)(=O)Nc2ccn(C3CCCCC3)c(=O)n2)cc1`: the melting point lay within 100 to 120 °C.

In turn, `O=c1c(-c2cccc(C(F)(F)F)c2F)nn(Cc2ccc(F)cc2F)c2cc(Cl)ccc12` returned a melting point of 118 to 120 °C.

Regarding `C#CCN1C[C@H](OC(C)=O)CC1=O`, the melting point was 46.5 to 47.5 °C.

In the case of `Cc1ccc(NC(=O)c2ccc(O)c(N)c2)cc1C`, the melting point lay in the range of 220 to 223 °C.

On to `CC(C)OC(=O)C(C(=O)Nc1nccs1)=C1SCS1`, for which the melting point lay within 174 to 175 °C.

Compound `CC1COCc2nc3c(N)nc4cc(C=CC(=O)N(C)C)ccc4c3n21` (centres undefined) returned a melting point greater than 250 °C.

The compound `COC(=O)c1cccnc1N(C)C1CCN(Cc2ccccc2)CC1` came in with a melting point of 109 to 110 °C.

The compound `CC(=O)NCC(=O)c1ccccc1` gave a melting point of 69 °C.

As to `CCOC(=O)c1c(N2CCN(C(=O)c3cccs3)CC2)c2cccnc2n(CCCN(C)C)c1=O`, the melting point was 84 to 94 °C.

For the compound `O=C(O)c1ccc(NCCCOc2ccccc2)cc1`, the melting point is 159 to 162 °C.

Consider `COc1cc([N+](=O)[O-])c(Cl)cc1NC(=O)C1CCNCC1`, for which the melting point lay in the range of 167 to 170 °C.

Compound `CC(C)(C)c1cc(-c2coc3c(C(C)(C)C)cc(C(C)(C)C)cc23)c(O)c(C(C)(C)C)c1` displayed a melting point of 236 to 238 °C.

Compound `O=C(O)COc1ccc(C(=O)c2ccccc2O)c(Cl)c1Cl` registered a melting point of 201 to 203 °C.

Turning to `CSC(=N)NS(=O)(=O)c1c(Cl)sc(Cl)c1Br`, the melting point is 113 to 115 °C.

With `Cc1ccc(OC(=O)N2CCCC2=O)cc1`, the melting point is 101 to 102 °C.

On to `COc1cc(OCn2nnc3ccccc32)c(C=O)cc1-c1cccs1`, for which the melting point is 137 to 138 °C.

As to `COc1ccc2c(c1)sc1nc(CO)cn12`, the melting point was in the range of 202 to 205 °C.

`Cc1c(C(=O)O)cnn1-c1nc(-c2ccccc2C(F)(F)F)cs1`: the melting point worked out at 216 °C.

`COc1c(-c2ccc3cc(NS(C)(=O)=O)ccc3c2)cc(-n2ccc(=O)[nH]c2=O)cc1-c1ccc(C)o1` yielded a melting point of 174 to 178 °C.

Compound `COc1ccc(OCCCCCCc2c(C)n[nH]c2O)c(Cl)c1` showed a melting point of 145 to 146 °C.

`O=S(=O)(c1ccc(Cl)cc1)C(Cc1ccccn1)c1cc(F)ccc1F` (centres undefined): the melting point is 105 to 107 °C.

`N#CCC(C(=O)N1C(=O)OCC1c1ccccc1)c1ccccc1F` (centres undefined) returned a melting point of 179 to 181 °C.

`COc1ccc2c(c1)c1c(n2C)CCCC1=O` gave a melting point of 150 to 151 °C.

`O=Cc1c(Br)n(C2OC(CO)C(O)C2O)c2cc(Cl)c(Cl)cc12` (centres undefined) displayed a melting point of 210 to 211 °C.

As to `CS(=O)(=O)N1CCN(Cc2ccccc2)CC1`, the melting point is 115 to 116 °C.

Take `Oc1cc2c(cc1-c1nc3cc(-c4ccccc4)ccc3o1)oc1ccccc12`: the melting point is 293 to 295 °C.

`CC(C)(C)OC(=O)C12CC3CC(C1)CC(C(=O)OC(C)(C)C)(C3)C2` gave a melting point of 65 to 66 °C.

In turn, `CNc1ccc2cc(Br)ccc2c1[N+](=O)[O-]` returned a melting point of 169 to 170 °C.

The compound `OCC1OC(n2cnc3c(NCCCC(c4ccccc4)c4ccccc4)ncnc32)C(O)C1O` (centres undefined) returned a melting point of 102 to 108 °C.

Turning to `CCc1c(CC(=O)NCCCCCCN)ccc(OC)c1OC`, the melting point fell in the range of 136 to 138 °C.

`CC(=O)Nc1ccc(OCC2CCCC(OC(CCn3ccnc3)c3ccc(F)cc3)O2)cc1` (centres undefined) displayed a melting point of 133 to 135 °C.

Regarding `O=C1CCCc2nc3ccccc3c(NCCc3ccccc3)c21`, the melting point fell in the range of 129 to 132 °C.

`COc1ccc2c(c1)C(=O)C(Oc1cccnc1)CO2` (centres undefined) yielded a melting point of 116 to 117 °C.

As for `C=CCc1c(O)cc(O)c(C)c1C(=O)OC`, the melting point was in the range of 72 to 95 °C.

In turn, `Cn1c(=O)n(O)c(=O)c2cc(F)c(N3CCCC3)cc21` registered a melting point greater than 250 °C.

As for `CC(C)(C)OC(=O)N[C@@H](CCC(=O)Oc1ccc(-c2nn(C3CCCC3)c3c(F)cccc23)cc1)C(=O)OC(C)(C)C`, the melting point was 92 to 93 °C.

On to `[O-][N+]1=C(c2ccccc2Cl)c2ccccc2C=CC1`, for which the melting point is 115 to 116 °C.

In turn, `Cn1nc(NC2c3cc(C#N)ccc3OC(C)(C)C2O)ccc1=O` (centres undefined) gave a melting point of 117 to 119 °C.

Take `O=C1NCC(COc2ccccc2)O1` (centres undefined): the melting point lay within 108 to 109 °C.

Take `O=C(O)c1c(F)cccc1NC1CCN(Cc2ccccc2)CC1`: the melting point was 233 to 236 °C.

In turn, `C[C@H](C(=O)O)c1ccc2cc(OCCCCCCc3ccc(OCc4ccccc4)c(OCc4ccccc4)c3)ccc2c1` displayed a melting point of 80 to 82 °C.

As for `C=CCNc1ccc(C(=O)O)cc1`, the melting point fell in the range of 144 to 146 °C.

`COc1cc2c(cc1-c1cccnc1)-c1c(C3=CCOCC3)c3c(n1CC2)C(=O)N(C(C)(C)C)CCCC3`: the melting point was 208 to 210 °C.

`CCCN1CCN=C1c1ccccc1C(=O)c1ccc(Cl)cc1` displayed a melting point of 131 to 133 °C.

On to `O[C@@H]1c2ccccc2CC[C@H]1N1CCC(O)(c2ccccc2)CC1` (relative stereo), for which the melting point is 184 °C.

Take `NC(=O)N(O)CCNC(=O)c1cccc(Oc2cccc(C(F)(F)F)c2)c1`: the melting point was in the range of 126 to 128 °C.

Compound `COc1ccc2cc([C@H](C)C(=O)OCC(=O)N3CCC(CO[N+](=O)[O-])CC3)ccc2c1` displayed a melting point of 94 to 95 °C.

`COC(=O)Cc1sc(=O)[nH]c1/C=C/c1ccccc1` came in with a melting point of 164 °C.

For `C=CC(=O)NC(=O)NCCCl`, the melting point fell in the range of 156 to 158 °C.

The compound `N#Cc1cc(F)cc(-c2ccc3c(c2)C(C2CC2)(C2CC2)OC(=O)N3)c1` displayed a melting point of 250 to 252 °C.

`CCOc1cccc(-c2nn(C(C)c3oc4ccccc4c(=O)c3-c3cccc(F)c3)c3ncnc(N)c23)c1` (centres undefined) registered a melting point of 162 to 165 °C.

Compound `O=C(Nc1ccc(OCCCc2cccnc2)c2ccccc12)c1cc(F)cc(N2CCOCC2)c1` showed a melting point of 64 to 66 °C.

Take `COc1cccc(S(=O)(=O)N2CCc3cc(OCc4ccccc4)c(OC)cc3C2=O)c1`: the melting point lay in the range of 140 to 145 °C.

`Cc1ccc2c3c(ccc2n1)OC[C@H](CN1CCN(c2ccc4ccccc4n2)C[C@@H]1C)O3`: the melting point was in the range of 78 to 82 °C.

In turn, `CCC(COC)Nc1nc(C)nc(Cl)c1N` (centres undefined) came in with a melting point of 128 to 130 °C.

`CC(C)OC(=O)c1nc(Cl)c(-c2c(F)cc(F)cc2F)c(N[C@@H](C)C(F)(F)F)n1` came in with a melting point of 146 to 147 °C.

The compound `CCn1cc(C(=O)O)c(=O)cc1-c1ccc(NC)c(C)c1` showed a melting point of 243 to 244 °C.

Turning to `CCNC1CN(c2ccc(CCO[Si](c3ccccc3)(c3ccccc3)C(C)(C)C)cc2)S(=O)(=O)c2sc(S(N)(=O)=O)cc21` (centres undefined), the melting point was 66 °C.

Compound `CSC1C(=O)Nc2c(C(=O)c3ccc(Cl)cc3)cccc21` (centres undefined) returned a melting point of 186 to 188 °C.

In turn, `CC(C)c1nsc(N=CN(C)C)c1C#N` yielded a melting point of 95 to 97 °C.
